The target of this assay is T1, cyclooxygenase-2 (COX-2) (Homo sapiens, UniProt P35354).
T1 construct: human osteosarcoma 143 cells (which specifically express cyclooxygenase-2); endogenous in cells; host or cells: human osteosarcoma 143 cells (whole cells, and microsomes prepared from them)
T1 sequence (P35354 18-604): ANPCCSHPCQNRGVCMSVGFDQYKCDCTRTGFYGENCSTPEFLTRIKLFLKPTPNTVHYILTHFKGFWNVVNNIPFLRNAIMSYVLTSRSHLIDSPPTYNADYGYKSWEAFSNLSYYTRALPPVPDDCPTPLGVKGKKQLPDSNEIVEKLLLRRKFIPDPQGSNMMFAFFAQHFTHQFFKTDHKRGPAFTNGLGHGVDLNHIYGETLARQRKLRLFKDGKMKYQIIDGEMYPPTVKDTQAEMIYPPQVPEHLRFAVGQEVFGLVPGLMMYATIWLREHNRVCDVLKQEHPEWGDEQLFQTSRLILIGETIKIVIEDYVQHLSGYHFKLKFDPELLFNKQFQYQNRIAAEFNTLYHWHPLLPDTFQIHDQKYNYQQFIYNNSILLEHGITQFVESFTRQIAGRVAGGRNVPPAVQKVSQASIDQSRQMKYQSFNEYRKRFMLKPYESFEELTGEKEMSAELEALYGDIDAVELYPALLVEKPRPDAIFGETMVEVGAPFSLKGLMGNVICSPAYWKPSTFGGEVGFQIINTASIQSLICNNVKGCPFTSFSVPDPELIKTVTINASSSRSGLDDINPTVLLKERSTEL
The experiment in a line: Whole cell cyclooxygenase assay, COX-2 (PGE2 synthesis in response to arachidonic acid, radioimmunoassay), human osteosarcoma 143 cells. The class given is cell-based. Conditions: read-out: Whole Cells COX-2 % inhib.; for inhibition at 0.04 µM: 40 nM; for inhibition at 0.16 µM: 160 nM; for inhibition at 0.01 µM: 10 nM; for inhibition at 0.08 µM: 80 nM; for inhibition at 0.02 µM: 20 nM. The protocol:
Compounds were tested as inhibitors of cyclooxygenase activity in whole cell and microsomal cyclooxygenase assays. Both of these assays measured prostaglandin E2 (PGE2) synthesis in response to arachidonic acid, using a radioimmunoassay. Cells used for whole cell assays, and from which microsomes were prepared for microsomal assays, were human osteosarcoma 143 cells (which specifically express cyclooxygenase-2) and human U-937 cells (which specifically express cyclooxygenase-1). In these assays, 100% activity is defined as the difference between prostaglandin E2 synthesis in the absence and presence of arachidonate addition.

As to `CS(=O)(=O)c1ccc(C2=C(c3ccccc3Cl)C(=O)OC2)cc1` [Example 24, 3-(2-Chlorophenyl)-4-(4-(methylsulfonyl)phenyl)-2-(5H)-furanone], the inhibition at 0.04 µM is 43% and the inhibition at 0.16 µM came to 78%.
Turning to `COc1ccc(C2=C(c3ccc(S(C)(=O)=O)cc3)COC2=O)cc1F` [Example 36, 3-(3-Fluoro-4-methoxyphenyl)-4-(4-(methylsulfonyl)phenyl)-2-(5H)-furanone], the inhibition at 0.01 µM worked out at 11%, the inhibition at 0.04 µM was found to be 50% and the inhibition at 0.16 µM came out at 89%.
`CS(=O)(=O)c1ccc(C2=C(c3ccc4ccccc4c3)C(=O)OC2)cc1` [Example 49, 3-(2-Naphthyl)-4-(4-(methylsulfonyl)phenyl)-2-(5H)-furanone]: the inhibition at 0.01 µM amounted to 53%, the inhibition at 0.04 µM came out at 91% and the inhibition at 0.08 µM worked out at 99%.
Regarding `CS(=O)(=O)c1ccc(C2=C(c3ccc(Br)cc3F)C(=O)OC2)cc1` [Example 44, 3-(4-Bromo-2-fluorophenyl)-4-(4-(methylsulfonyl)phenyl)-2-(5H)-furanone], the inhibition at 0.02 µM is 14%, the inhibition at 0.04 µM was found to be 55% and the inhibition at 0.16 µM came out at 106%.
In the case of `CS(=O)(=O)c1ccc(C2=C(c3cccc(Cl)c3)C(=O)OC2)cc1` [Example 29, 3-(3-Chlorophenyl)-4-(4-(methylsulfonyl)phenyl)-2-(5H)-furanone], the inhibition at 0.02 µM was 78% and the inhibition at 0.16 µM was determined as 85%.
Consider `CS(=O)(=O)c1ccc(C2=C(c3c(F)cccc3F)C(=O)OC2)cc1` [Example 17, 3-(2,6-Difluorophenyl)-4-(4-(methylsulfonyl)phenyl)-2-(5H)-furanone], for which the inhibition at 0.04 µM was found to be 41% and the inhibition at 0.16 µM was determined as 77%.
With `Cc1ccc(C2=C(c3ccc(S(C)(=O)=O)cc3)COC2=O)cc1Br` [Example 43, 3-(3-Bromo-4-methylphenyl)-4-(4-(methylsulfonyl)phenyl)-2-(5H)-furanone], the inhibition at 0.01 µM worked out at 78% and the inhibition at 0.04 µM came to 101%.
For `CS(=O)(=O)c1ccc(C2=C(c3cc(F)cc(F)c3)C(=O)OC2)cc1` [Example 19, 3-(3,5-Difluorophenyl)-4-(4-(methylsulfonyl)phenyl)-2-(5H)-furanone], the inhibition at 0.04 µM turned out to be 21% and the inhibition at 0.16 µM was 59%.
On to `CS(=O)(=O)c1ccc(C2=C(c3ccc(Cl)c(Cl)c3)C(=O)OC2)cc1` [Example 32, 3-(3,4-Dichlorophenyl)-4-(4-(methylsulfonyl)phenyl)-2-(5H)-furanone], for which the inhibition at 0.01 µM was 73%, the inhibition at 0.04 µM turned out to be 92% and the inhibition at 0.08 µM came to 99%. Also, under “5 nM”, the inhibition at 0.005 µM came to 43%.
As to `NS(=O)(=O)c1ccc(C2=C(c3ccc(F)c(F)c3)C(=O)OC2)cc1` [Example 52, 3-(3,4-Difluorophenyl)-4-(4-(aminosulfonyl)phenyl)-2-(2H)-furanone], the inhibition at 0.01 µM stood at 50%, the inhibition at 0.04 µM was determined as 82% and the inhibition at 0.16 µM was found to be 102%.
For the molecule `CS(=O)(=O)c1ccc(C2=C(c3ccc(Br)c(F)c3)C(=O)OC2)cc1` [Example 47, 3-(4-Bromo-3-fluorophenyl)-4-(4-(methylsulfonyl)phenyl)-2-(5H)-furanone], the inhibition at 0.01 µM was 61%, the inhibition at 0.04 µM was 74% and the inhibition at 0.16 µM turned out to be 101%.
For the molecule `CS(=O)(=O)c1ccc(C2=C(c3cc(F)ccc3F)C(=O)OC2)cc1` [Example 18, 3-(2,5-Difluorophenyl)-4-(4-(methylsulfonyl)phenyl)-2-(5H)-furanone], the inhibition at 0.04 µM turned out to be 24% and the inhibition at 0.16 µM turned out to be 58%.
Turning to `CS(=O)(=O)c1ccc(C2=C(c3ccc(Cl)cc3Br)C(=O)OC2)cc1` [Example 26, 3-(2-Bromo-4-Chlorophenyl)-4-(4-(methylsulfonyl)phenyl)-2-(5H)-furanone], the inhibition at 0.08 µM was found to be 27% and the inhibition at 0.16 µM turned out to be 39%.
Regarding `COc1ccc(C2=C(c3ccc(S(C)(=O)=O)cc3)COC2=O)cc1` [Example 22, 3-(4-Methoxyphenyl)-4-(4-(methylsulfonyl)phenyl)-2-(5H)-furanone], the inhibition at 0.02 µM was 39% and the inhibition at 0.16 µM was determined as 98%.
`CS(=O)(=O)c1ccc(C2=C(c3ccc(C(F)(F)F)cc3)C(=O)OC2)cc1` [Example 35, 3-(4-Trifluoromethylphenyl)-4-(4-(methylsulfonyl)phenyl)-2-(5H)-furanone]: the inhibition at 0.02 µM worked out at 32%, the inhibition at 0.04 µM turned out to be 57% and the inhibition at 0.16 µM amounted to 83%.
Consider `CS(=O)(=O)c1ccc(C2=C(c3ccc(Cl)c(F)c3)C(=O)OC2)cc1` [Example 46, 3-(4-Chloro-3-fluorophenyl)-4-(4-(methylsulfonyl)phenyl)-2-(5H)-furanone], for which the inhibition at 0.01 µM came to 76%, the inhibition at 0.04 µM is 94% and the inhibition at 0.16 µM worked out at 97%.
For the molecule `CS(=O)(=O)c1ccc(C2=C(c3ccc4cccnc4c3)C(=O)OC2)cc1` [Example 50, 3-(7-Quinolinyl)-4-(4-(methylsulfonyl)phenyl)-2-(5H)-furanone], the inhibition at 0.08 µM was 42%.
For the molecule `CS(=O)(=O)c1ccc(C2=C(c3ccc(F)cc3F)C(=O)OC2)cc1` [Example 15, 3-(2,4-Difluorophenyl)-4-(4-(methylsulfonyl)phenyl)-2-(5H)-furanone], the inhibition at 0.02 µM worked out at 39%, the inhibition at 0.08 µM came out at 76% and the inhibition at 0.16 µM was 95%.
Consider `CS(=O)(=O)c1ccc(C2=C(c3ccc(F)c(F)c3)C(=O)OC2)cc1` [Example 16, 3-(3,4-Difluorophenyl)-4-(4-(methylsulfonyl)phenyl)-2-(5H)-furanone], for which the inhibition at 0.02 µM is 41%, the inhibition at 0.04 µM was 50% and the inhibition at 0.16 µM was determined as 85%.
For the molecule `CS(=O)(=O)c1ccc(C2=C(c3ccc(Br)cc3Cl)C(=O)OC2)cc1` [Example 48, 3-(4-Bromo-2-chlorophenyl)-4-(4-(methylsulfonyl)phenyl)-2-(5H)-furanone], the inhibition at 0.01 µM was 7% and the inhibition at 0.16 µM stood at 47%.
As for `CS(=O)(=O)c1ccc(C2=C(c3ccc(F)c(Br)c3)C(=O)OC2)cc1` [Example 28, 3-(3-Bromo-4-fluorophenyl)-4-(4-(methylsulfonyl)phenyl)-2-(5H)-furanone], the inhibition at 0.02 µM was determined as 48% and the inhibition at 0.16 µM came out at 69%.
In the case of `CS(=O)(=O)c1ccc(C2=C(c3ccc(F)cc3Br)C(=O)OC2)cc1` [Example 25, 3-(2-Bromo-4-fluorophenyl)-4-(4-(methylsulfonyl)phenyl)-2-(5H)-furanone], the inhibition at 0.16 µM was 40%.
Turning to `COc1ccc(C2=C(c3ccc(S(C)(=O)=O)cc3)COC2=O)cc1Br` [Example 38, 3-(3-Bromo-4-methoxyphenyl)-4-(4-(methylsulfonyl)phenyl)-2-(5H)-furanone], the inhibition at 0.01 µM came to 25%, the inhibition at 0.04 µM stood at 63% and the inhibition at 0.16 µM worked out at 88%.
As for `CS(=O)(=O)c1ccc(C2=C(c3ccccc3F)C(=O)OC2)cc1` [Example 39, 3-(2-Fluorophenyl)-4-(4-(methylsulfonyl)phenyl)-2-(5H)-furanone], the inhibition at 0.01 µM was determined as 17% and the inhibition at 0.16 µM came to 84%.

Source of the values: patent publication US5767291A, “Phenyl heterocycles as cox-2 inhibitors” (Merck Frosst Canada, Inc., priority 1996, dated 1998).
